Experimental findings from patent US20230124142A1, “NEW THERAPEUTIC TARGETS WITH AN ANTI-INFLAMMATORY AND ANTI-INTERFERON EFFECT” (UNIVERSITÉ PARIS CITÉ, priority 2020, published 2023) are described below.

The test system of series [1] is HEK293 non-immune cell line. As to the kind of experiment: Interferon production by cGAMP-activated HEK293 non-immune cells (STING-37), luciferase. Conditions: inhibitor at 1 μM (FIG. 23C).
Series [2] has as its system THP1-Dual human monocyte cell line. The series is described as follows: Cell toxicity on THP1-Dual, ATP quantification with CellTiter Glo. Type of series: cell-based. Conditions: cGAMP 24 h. In general terms: ATP-based viability assays read luminescence as a measure of living cells.
The test system is the same in series [3]. The series is described as follows: Interferon response of cGAMP-activated THP1-Dual cells, luciferase. Conditions: inhibitor 1 h before cGAMP 3 μg/ml, 24 h, luciferase (FIG. 22B, 23B).
The subject of series [4] is peripheral blood mononuclear cells (PBMCs) of healthy donors. The series is described as follows: Secretion of inflammatory cytokines and interferons by PBMCs after TLR7/8 (R848) stimulation, LegendPlex.
The next series deals with activated immune cells. As to the kind of experiment: Secretion of inflammatory cytokines and interferons by activated immune cells placed in contact with ROCK inhibitor. Type of series: cell-based. Conditions: compared with activated immune cells not placed in contact with the inhibitor.
In series [5] the test system is peripheral blood mononuclear cells (PBMCs). As to the kind of experiment: Interferon production by cGAMP-activated PBMCs, STING-37 reporter cell line. Conditions: inhibitor 1 h before cGAMP 3 μg/ml, 24 h, STING-37 reporter (FIG. 22A, 23A).
The subject of series [6] is neurones infected by the prions. Type of series: cell-based.
The test system of series [7] is peripheral blood mononuclear cells (PBMCs). As to the kind of experiment: Cell toxicity on PBMCs, ATP quantification with CellTiter Glo. Type of series: cell-based, human. Conditions: cGAMP 24 h.
Series [8] has as its system monocytes of patients suffering from juvenile idiopathic arthritis. As to the kind of experiment: Spontaneous TNFα production by monocytes of juvenile idiopathic arthritis patients, SIMOA (digital ELISA). Type of series: cell-based, human. Conditions: inhibitor 24 h, SIMOA (FIG. 16). The method, then:
The assay of the TNFα secreted by the monocytes of a patient suffering from juvenile idiopathic arthritis was carried out by SIMOA (digital ELISA).
On the technique in general: In an ELISA, binding on a coated surface is turned into a signal by an enzyme label.

The test system of series [9] is monocytes of healthy donors. The series is described as follows: Intracellular TNFα production in monocytes after TLR4 (LPS) stimulation, flow cytometry. Conditions: inhibitor 1 h before LPS (TLR4) 100 ng/ml, 16 h, flow cytometry (FIG. 5). Type of series: cell-based, human. The method, then: (§1) The cells were rinsed in PBS then incubated with a viability dye (Zombie Aqua, Biolegend) for 30 min at ambient temperature. After washing, the cells were resuspended in PBS containing 2% SVF and 2 mM EDTA then labelled with the APC Vio770 anti-CD14 (clone REA599) antibody from Miltenyi Biotec, used at 1/100°. […] The cells were fixed for 20 min at ambient temperature with 250 μL Inside Fix solution then labelled in 100 μL Inside Perm solution containing the PE anti-TNFα (Miltenyi Biotec) and/or APC anti-IL-1β (Miltenyi Biotec) antibody at 1/50° for 30 min at ambient temperature. Data acquisition was carried out on the Canto II flow cytometer using the Diva software (BD Biosciences, San Jose, Calif.). The Kaluza software was used to analyze the data.

In series [10] the test system is monocytes of healthy donors. The series is described as follows: Intracellular TNFα production in monocytes after TLR2 (lipoteichoic acid, LTA) stimulation, flow cytometry. Type of series: cell-based, human. Conditions: inhibitor 1 h before LTA (TLR2) 1 μg/ml, 16 h, flow cytometry (FIG. 6). The procedure:
as §1

Series [11] concerns peripheral blood mononuclear cells (PBMCs) of healthy donors. The series is described as follows: Toxicity on PBMCs (CellTiter-Glo), HIV. Type of series: cell-based, human. Conditions: PBMCs of healthy donors infected with HIV, 24 h, CellTiter-Glo (FIG. 14). The method, then:
(§2) After 24 h of cell culture, the cell viability was determined using the CellTiter-Glo reagent (Promega), which evaluates the amount of ATP by luminescence using the EnSpire.

For series [12] the test system is unchanged. As to the kind of experiment: Secretion of inflammatory cytokines and interferons by PBMCs in response to HIV, LegendPlex. Type of series: cell-based, human. Conditions: 24 h, LegendPlex (FIG. 13).
The test system of series [13] is immune cells (PBMCs and purified monocytes) of healthy donors. The series is described as follows: Production of inflammatory cytokines by PBMCs and purified monocytes after TLR2/4 stimulation by bacterial agents. Type of series: cell-based, human. Conditions: TLR 2/4 stimulation by lipoteichoic acid/LPS.
Series [14] deals with peripheral blood mononuclear cells (PBMCs) of healthy donors. As to the kind of experiment: Toxicity on PBMCs (CellTiter-Glo), TLR7/8 stimulation. Type of series: cell-based, human. Conditions: TLR 7/8 stimulation, 24 h, CellTiter-Glo (FIG. 4). The method, then: Test for toxicity of the compounds on the peripheral blood mononuclear cells (PBMCs).
as §2

The test system of series [15] is plasmacytoid dendritic cells (pDC) of healthy donors. As to the kind of experiment: Intracellular IFNα and TNFα in plasmacytoid dendritic cells in response to HIV, flow cytometry. Conditions: AT-2-inactivated HIV-1MN, 16 h. Type of series: cell-based, human. The method, then:
The cells were rinsed in PBS then incubated with a viability dye (Zombie Aqua, Biolegend) for 30 min at ambient temperature. After washing, the cells were resuspended in PBS containing 2% SVF and 2 mM EDTA then labelled with the APC Vio770 anti-CD14 (clone REA599) antibody from Miltenyi Biotec, used at 1/100°. For the intracellular labelling of TNFα and IFNα, the “Inside Stain” kit (Miltenyi Biotec) was used according to the manufacturer's protocol. The cells were fixed for 20 min at ambient temperature with 250 μL Inside Fix solution then labelled in 100 μL Inside Perm solution containing the APC anti-TNFα (Miltenyi Biotec) and/or PE anti-IFNα (Miltenyi Biotec) antibody at 1/50° for 30 min at ambient temperature. Data acquisition was carried out on the Canto II flow cytometer using the Diva software (BD Biosciences, San Jose, Calif.). The Kaluza software was used to analyze the data.
In general terms: A flow cytometer gives signals particle by particle.

Series [16] concerns peripheral blood mononuclear cells (PBMCs) of healthy donors. The series is described as follows: Toxicity on PBMCs (CellTiter-Glo), TLR4 stimulation. Type of series: cell-based, human. Conditions: 24 h, CellTiter-Glo (FIG. 8). The method, then:
as §2

The test system is the same in series [17]. As to the kind of experiment: Interferon secretion by R848-stimulated PBMCs, inhibitor before, during or after stimulation, STING-37 reporter cell line. Type of series: cell-based, human.
Series [18] relates to monocytes of healthy donors. As to the kind of experiment: Intracellular IL1β and TNFα in monocytes after inflammasome activation by uric acid crystals (MSU, gout model), flow cytometry. Type of series: cell-based, human. The procedure:
The cells were rinsed in PBS then incubated with a viability dye (Zombie Aqua, Biolegend) for 30 min at ambient temperature. After washing, the cells were resuspended in PBS containing 2% SVF and 2 mM EDTA then labelled with the APC Vio770 anti-CD14 (clone REA599) antibody from Miltenyi Biotec, used at 1/100°. […] Data acquisition was carried out on the Canto II flow cytometer using the Diva software (BD Biosciences, San Jose, Calif.). The Kaluza software was used to analyze the data.

Series [19] relates to monocytes of healthy donors. As to the kind of experiment: Intracellular TNFα production in monocytes after TLR7/8 (Resiquimod-R848) stimulation, flow cytometry. Type of series: cell-based, human. Conditions: inhibitor 1 h before R848 (TLR7/8), 16 h, flow cytometry (FIG. 1, 2). The procedure:
The cells were rinsed in PBS then incubated with a viability dye (Zombie Aqua, Biolegend) for 30 min at ambient temperature. After washing, the cells were resuspended in PBS containing 2% SVF and 2 mM EDTA then labelled with the APC Vio770 anti-CD14 (clone REA599) antibody from Miltenyi Biotec, used at 1/100°. […] Data acquisition was carried out on the […] flow cytometer using the Diva software (BD Biosciences, San Jose, Calif.). The Kaluza software was used to analyze the data.

For series [20], the system named is peripheral blood mononuclear cells (PBMCs) of healthy donors. As to the kind of experiment: Secretion of inflammatory cytokines and interferons by PBMCs after TLR4 stimulation, LegendPlex. Type of series: cell-based, human. Conditions: 24 h, LegendPlex (FIG. 7).
[21] abbreviates: PBMCs of healthy donors, inhibitor 1 h before R848 (TLR7/8), 24 h, LegendPlex (FIG. 3).

As to `Cc1cncc2cccc(S(=O)(=O)N3CCCNCC3C)c12` (stereo not drawn) [dimethylfasudil], the “production of interferon induced by the STING ligand” value in [1] was “does not block”. The “viability of the THP1-Dual” value in series [2] is “without affecting the viability”. Besides, the “production of interferons (IFN) induced by the cGAMP” value in series [3] and in [5] was “blocks the production of interferons (IFN) induced by the cGAMP according to a dosage effect starting from 1 μM” in each case. In addition, the “production of TNFα and of pro-inflammatory cytokines such as IL-6, IL-1β and the interferons induced by the TLR7/8 stimulation” value in series [4] (human PBMCs incubated with inhibitor before R848 stimulation) was “inhibits the production”. In the series with activated immune cells, the “secretion of the inflammatory cytokines (TNFα, IL-1β, IL6, MCP1 (CCL2)) and of the interferons (IFN)” value was “inhibits the secretion”. Moreover, the “level of TNFα in the culture medium” value in series [6] is on record as “re-establishes a “normal” level”. In series [7], the “viability of the PBMCs” value is “without affecting the viability”.
Consider BX912, for which the “spontaneous production of TNFα” value in [8] is “inhibits the spontaneous production”. Moreover, the “production of inflammatory cytokines (TNFα)” value in [9] is “inhibits, according to a dosage effect”; in [10], “inhibits, according to a dosage effect”. Moreover, the “secretion of the inflammatory cytokines (IL-6, IL-1β, TNFα, IP10, GM-CSF, IL-10)” value in series [4] (setting [21]) is “inhibits the secretion”. Further, the “secretion of the interferons (IFNI1, IFNI2/3, IFNβ, IFNg)” value in [4] (setting [21]) was “inhibits the secretion”. In addition, the “toxicity on PBMCs” value in series [11] and in series [16] was “no toxicity” each time. In series [12], the “secretion of the inflammatory cytokines (IL-6, IL-1β, TNFα, IP10)” value is on record as “inhibits the secretion”. Also, the “secretion of the interferons (IFNα2, IFNβ, IFNI1)” value in [12] is on record as “inhibits the secretion”. Besides, the “production of inflammatory cytokines” value in series [13] and in series [18] (activation of the inflammasome by uric acid crystals (mimicking gout)) was “capable of inhibiting the production of inflammatory cytokines” in each case. In series [14], the “toxicity on the immune cells (PBMCs)” value is “no toxicity”. In addition, the “intracellular production of interferon IFNα” value in [15] (flow cytometry (FIG. 11)) is recorded as “inhibits the intracellular production”. The “production of TNFα” value in series [15] (flow cytometry (FIG. 12)) is listed as “inhibits the production”; in series [18] (uric acid crystals (MSU) 50 μg/ml, 16 h, gout model (FIG. 10)), “inhibits the production”. Moreover, the secretion of interferons entry is “blocking” in series [17] (inhibitor during the TLR 7/8 stimulation, STING-37 reporter (FIG. 15B)); “blocking” in [17] (inhibitor in a curative manner, 1 h after TLR 7/8 stimulation, STING-37 reporter (FIG. 15C)); “blocking” in series [17] (inhibitor in a preventive manner, 1 h before TLR 7/8 stimulation, STING-37 reporter (FIG. 15A)). The “intracellular production of IL1β” value in series [18] (uric acid crystals (MSU) 50 μg/ml, 16 h, gout model (FIG. 9)) is given as “inhibits the intracellular production”. The “intracellular production of inflammatory cytokines (TNFα)” value in series [19] is “inhibits, according to a dosage effect”. For the same molecule, the “secretion of the inflammatory cytokines (IL-6, IL-1β, TNFα, GM-CSF, IL-10)” value in series [20] is recorded as “inhibits the secretion”. The “secretion of the interferons (IFNI2/3, IFNβ, IFNg)” value in series [20] is recorded as “inhibits the secretion”.
